According to US9051310B2, “Nicotinamide derivative or salt thereof” (FUJIFILM Corporation, priority 2011, dated 2015):

Legend:
[1] = molecular target: T1, glutathione S-transferase (GST)-linked full-length human Syk protein (Homo sapiens, UniProt P43405); experiment: Syk enzyme assay; type: biochemical; settings: 0.83 nM Syk, time-resolved fluorescence; read-out: IC50 of Syk-inhibitory activity
T1 construct: glutathione S-transferase (GST)-linked full-length human Syk protein; purchased Carna Biosciences; host or cells: Baculovirus expression system
How it was run: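 Phosphotyrosine on a biotin-peptide substrate (0.5 μM) was read by time-resolved fluorescence at 615 and 665 nm with Eu-anti-pTyr antibody and APC-streptavidin after 1 h EDTA stop.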

[2] = test system: THP-1 cells (TNFα secretion on human IgG-coated plate); experiment: TNFα generation assay; type: cell-based; settings: IFN-γ differentiated THP-1 cells, 7 hours, AlphaLISA, read-out: IC50 of TNFα generation inhibitory activity
Protocol: THP-1 cells (2×10^5 cells/ml), which were human monocytoid cells, were cultured in the presence of 10 ng/ml IFN-γ (Roche) for 2 days, and they were induced to differentiate into macrophage-like cells. The differentiation-induced THP-1 cells were recovered, and the cells (1×10^6 cell/ml) were then allowed to react with a predetermined concentration of test compound at room temperature for 30 minutes. On the other hand, 100 μl of human IgG (10 μg/ml, SIGMA-ALDRICH) diluted with PBS was added to a 96-well plate, and it was then incubated at room temperature overnight. Thereafter, the resultant was washed with PBS twice to produce a human IgG-coated plate. A cell fluid that contained a compound was plated on the obtained human IgG-coated plate (5×10^4 cells/well), and it was then cultured for 7 hours. Thereafter, the cultured solution was recovered, and the amount of TNFα secreted into the culture solution was then measured by the AlphaLISA method (PerkinElmer).

IC50 [1] | IC50 [2] | Structure (SMILES)
10 to 50 nM | 130 to 200 nM | CC[C@H](N)[C@H](Nc1nc(Nc2cncc(-n3cccn3)c2)c(C(N)=O)cc1F)C1CC1 [Example 2-366, 2-((5-(1H-pyrazol-1-yl)pyridin-3-yl)amino)-6-(((1R,2S)-2-amino-1-cyclopropylbutyl)amino)-5-fluoronicotinamide]
< 10 nM | 130 to 200 nM | CCn1ncc2ccc(Nc3nc(N[C@H](CC(C)C)[C@H](C)N)c(F)cc3C(N)=O)cc21 [Example 2-11, 6-(((2S,3R)-2-amino-5-methylhexan-3-yl)amino)-2-((1-ethyl-1H-indazol-6-yl)amino)-5-fluoronicotinamide]
< 10 nM | 130 to 200 nM | COc1nn(C)c2ccc(Nc3nc(N[C@H](C4CCC4)[C@H](C)N)c(F)cc3C(N)=O)cc12 [Example 2-82, 6-(((1R,2S)-2-amino-1-cyclobutylpropyl)amino)-5-fluoro-2-((3-methoxy-1-methyl-1H-indazol-5-yl)amino)nicotinamide]
< 10 nM | 130 to 200 nM | CCCC[C@@H](Nc1nc(Nc2ccc3c(c2)c(OC)nn3C)c(C(N)=O)cc1F)[C@H](C)N [Example 2-83, 6-(((2S,3R)-2-aminoheptan-3-yl)amino)-5-fluoro-2-((3-methoxy-1-methyl-1H-indazol-5-yl)amino)nicotinamide]
< 10 nM | < 65 nM | C[C@H](N)[C@H](Nc1nc(Nc2ccc3c(cnn3CC(F)F)c2)c(C(N)=O)cc1F)C1CC1 [Example 2-71]
< 10 nM | 65 to 130 nM | CC[C@H](N)[C@@H](CC)Nc1nc(Nc2ccc3c(cnn3CCOC)c2)c(C(N)=O)cc1F [Example 2-266, 6-(((3R,4S)-4-aminohexan-3-yl)amino)-5-fluoro-2-((1-(2-methoxyethyl)-1H-indazol-5-yl)amino)nicotinamide]
< 10 nM | 65 to 130 nM | CCCC[C@@H](Nc1nc(Nc2ccc3cnn(C)c3c2)c(C(N)=O)cc1F)[C@H](C)N [Example 2-38, 6-(((2S,3R)-2-aminoheptan-3-yl)amino)-5-fluoro-2-((1-methyl-1H-indazol-6-yl)amino)nicotinamide]
< 10 nM | 65 to 130 nM | COC[C@@H](Nc1nc(Nc2ccc3c(c2)c(OC(F)F)nn3C)c(C(N)=O)cc1F)[C@H](C)N [Example 2-173, 6-(((2S,3S)-3-amino-1-methoxybutan-2-yl)amino)-2-((3-(difluoromethoxy)-1-methyl-1H-indazol-5-yl)amino)-5-fluoronicotinamide]
< 10 nM | 130 to 200 nM | Cc1cccc(Nc2nc(N[C@H](C3CCC3)[C@H](C)N)c(F)cc2C(N)=O)c1 [Example 2-25, 6-(((1R,2S)-2-amino-1-cyclobutylpropyl)amino)-5-fluoro-2-(m-tolylamino)nicotinamide]
10 to 50 nM | 130 to 200 nM | CCOC[C@@H](Nc1nc(Nc2ccc3c(cnn3C)c2)c(C(N)=O)cc1F)[C@H](C)N [Example 2-179, 6-(((2S,3S)-3-amino-1-ethoxybutan-2-yl)amino)-5-fluoro-2-((1-methyl-1H-indazol-5-yl)amino)nicotinamide]
< 10 nM | 65 to 130 nM | COCCn1nc(C)c2cc(Nc3nc(N[C@H](C4CC4)[C@H](C)N)c(F)cc3C(N)=O)ccc21 [Example 2-133, 6-(((1R,2S)-2-amino-1-cyclopropylpropyl)amino)-5-fluoro-((1-(2-methoxyethyl)-3-methyl-1H-indazol-5-yl)amino)nicotinamide]
< 10 nM | 65 to 130 nM | COc1cc(Nc2nc(N[C@H](c3ccc(F)cc3)[C@H](C)N)c(F)cc2C(N)=O)cc(OC)c1 [Example 2-269, 6-(((1R,2S)-2-amino-1-(4-fluorophenyl)propyl)amino)-2-((3,5-dimethoxyphenyl)amino)-5-fluoronicotinamide]
< 10 nM | 130 to 200 nM | CNc1nn(C)c2ccc(Nc3nc(N[C@@H]4CCCC[C@@H]4N)c(F)cc3C(N)=O)cc12 [Example 2-496, 6-(((1R,2S)-2-aminocyclohexyl)amino)-5-fluoro-2-((1-methyl-3-(methylamino)-1H-indazol-5-yl)amino)nicotinamide]
< 10 nM | < 65 nM | Cc1cnn(-c2cncc(Nc3nc(N[C@@H]4CCCC[C@@H]4N)c(F)cc3C(N)=O)c2)c1 [Example 2-472, 6-(((1R,2S)-2-aminocyclohexyl)amino)-5-fluoro-2-((5-(4-methyl-1H-pyrazol-1-yl)pyridin-3-yl)amino)nicotinamide]
< 10 nM | 130 to 200 nM | Cc1ncc(Nc2nc(N[C@H](c3ccc(F)cc3)[C@H](C)N)c(F)cc2C(N)=O)cc1-n1nccn1 [Example 2-32, 6-(((1R,2S)-2-amino-1-(4-fluorophenyl)propyl)amino)-5-fluoro-2-((6-methyl-5-(2H-1,2,3-triazol-2-yl)pyridin-3-yl)ammo)nicotinamide]
< 10 nM | 65 to 130 nM | CCC[C@@H](Nc1nc(Nc2cnc(OCC)c(-n3ccnn3)c2)c(C(N)=O)cc1F)[C@H](C)N [Example 2-207, 6-(((2S,3R)-2-aminohexan-3-yl)amino)-2-((6-ethoxy-5-(1H-1,2,3-triazol-1-yl)pyridin-3-yl)amino)-5-fluoronicotinamide]
10 to 50 nM | 130 to 200 nM | COc1ncc(Nc2nc(N[C@H](CC(C)C)[C@H](C)N)c(F)cc2C(N)=O)cc1-n1ccnn1 [Example 2-141, 6-(((2S,3R)-2-amino-5-methylhexan-3-yl)amino)-5-fluoro-2-((6-methoxy-5-(1H-1,2,3-triazol-1-yl)pyridin-3-yl)amino)nicotinamide]
< 10 nM | 130 to 200 nM | CC(C)C[C@@H](Nc1nc(Nc2ccc3c(c2)c(OC(F)F)nn3C)c(C(N)=O)cc1F)[C@H](C)N [Example 2-172, 6-(((2S,3R)-2-amino-5-methylhexan-3-yl)amino)-2-((3-(difluoromethoxy)-1-methyl-1H-indazol-5-yl)amino)-5-fluoronicotinamide]
10 to 50 nM | 130 to 200 nM | CCCC[C@@H](Nc1nc(Nc2cncc(-n3cccn3)c2)c(C(N)=O)cc1F)[C@H](C)N [Example 2-69, 2-((5-(1H-pyrazol-1-yl)pyridin-3-yl)amino)-6-(((2S,3R)-2-aminoheptan-3-yl)amino)-5-fluoronicotinamide]
< 10 nM | 65 to 130 nM | CC[C@H](N)[C@@H](C)Nc1nc(Nc2cc(F)cc3c2cnn3CCOC)c(C(N)=O)cc1F [Example 2-378, 6-(((2R,3S)-3-aminopentan-2-yl)amino)-5-fluoro-2-((6-fluoro-1-(2-methoxyethyl)-1H-indazol-4-yl)amino)nicotinamide]
< 10 nM | 130 to 200 nM | CC[C@@H](Nc1nc(Nc2ccc(C)c(C)c2)c(C(N)=O)cc1F)[C@H](C)N [Example 2-477, 6-(((2S,3R)-2-aminopentan-3-yl)amino)-2-((3,4-dimethylphenyl)amino)-5-fluoronicotinamide]
< 10 nM | 65 to 130 nM | C[C@H](N)[C@H](Nc1nc(Nc2cccc(-n3ccnn3)c2)c(C(N)=O)cc1F)C1CC1 [Example 2-480, 2-((3-(1H-1,2,3-triazol-1-yl)phenyl)amino)-6-(((1R,2S)-2-amino-1-cyclopropylpropyl)amino)-5-fluoronicotinamide]
< 10 nM | 65 to 130 nM | COc1cc(Nc2nc(N[C@H](C3CC3)[C@H](C)N)c(F)cc2C(N)=O)cc(OC)c1 [Example 2-47, 6-(((1R,2S)-2-amino-1-cyclopropylpropyl)amino)-2-((3,5-dimethoxyphenyl)amino)-5-fluoronicotinamide]
